Laboratory results reported in patent US20240182489A1, “New 5,6,7,8-Tetrahydropyrido[4',3':4,5]thieno[2,3-d]pyrimidin-4(3H)-one Derivatives as Sigma Ligands” (ACONDICIONAMIENTO TARRASENSE, priority 2021, published 2024).

Biological target: T1, human σ1 receptor (Homo sapiens, UniProt Q99720)
T1 construct: expressed in transfected cells; host or cells: HEK-293 (membranes)
Experiment: Human σ1 receptor radioligand assay
Assay type: binding
Settings: [3H](+)-pentazocine radioligand, transfected HEK-293 membranes

T1 sequence (Q99720 whole entry): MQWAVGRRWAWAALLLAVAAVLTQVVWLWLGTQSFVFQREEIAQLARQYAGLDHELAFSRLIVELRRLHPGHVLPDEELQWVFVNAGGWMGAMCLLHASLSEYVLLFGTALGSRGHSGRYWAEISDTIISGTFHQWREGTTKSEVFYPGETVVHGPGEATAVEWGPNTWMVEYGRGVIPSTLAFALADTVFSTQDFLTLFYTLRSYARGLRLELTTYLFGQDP

Ki [nM] | Compound
< 100 | C[C@H](c1cccc(C#N)c1)n1cnc2sc3c(c2c1=O)CCNC3 [Example 14, (R)-3-(1-(4-Oxo-5,6,7,8-tetrahydropyrido[4′,3′:4,5]thieno[2,3-d]pyrimidin-3(4H)-yl)ethyl)benzonitrile]
> 500 | C[C@H](c1ccc(F)cc1)n1cnc2sc3c(c2c1=O)CNCC3 [Example 17, (R)-3-(1-(4-Fluorophenyl)ethyl)-5,6,7,8-tetrahydropyrido[3′,4′:4,5]thieno[2,3-d]pyrimidin-4(3H)-one]
< 500 | C[C@@H](c1ccc(C#N)c(F)c1)n1cnc2sc3c(c2c1=O)CCNC3 [Example 19, (S)-2-Fluoro-4-(1-(4-oxo-5,6,7,8-tetrahydropyrido[4′,3′:4,5]thieno[2,3-d]pyrimidin-3(4H)-yl)ethyl)benzonitrile]
> 500 | C[C@H](c1ccc(C#N)c(F)c1)n1cnc2sc3c(c2c1=O)CCNC3 [Example 20, (R)-2-fluoro-4-(1-(4-oxo-5,6,7,8-tetrahydropyrido[4′,3′:4,5]thieno[2,3-d]pyrimidin-3(4H)-yl)ethyl)benzonitrile]
> 500 | Cc1nc(-c2ccc(C(C)n3cnc4sc5c(c4c3=O)CCNC5)cc2)no1 (centres unmarked) [Example 24, 3-(1-(4-(5-Methyl-1,2,4-oxadiazol-3-yl)phenyl)ethyl)-5,6,7,8-tetrahydropyrido[4′,3′:4,5]thieno[2,3-d]pyrimidin-4(3H)-one]
< 500 | C[C@@H](c1ccc(F)cc1Cl)n1cnc2sc3c(c2c1=O)CCNC3 [Example 25, (S)-3-(1-(2-Chloro-4-fluorophenyl)ethyl)-5,6,7,8-tetrahydropyrido[4′,3′:4,5]thieno[2,3-d]pyrimidin-4(3H)-one]
> 500 | C[C@H](c1ccc(F)cc1Cl)n1cnc2sc3c(c2c1=O)CCNC3 [Example 26, (R)-3-(1-(2-chloro-4-fluorophenyl)ethyl)-5,6,7,8-tetrahydropyrido[4′,3′:4,5]thieno[2,3-d]pyrimidin-4(3H)-one]
< 100 | C[C@@H](c1cc(F)cc(Cl)c1)n1cnc2sc3c(c2c1=O)CCNC3 [Example 27, (S)-3-(1-(3-Chloro-5-fluorophenyl)ethyl)-5,6,7,8-tetrahydropyrido[4′,3′:4,5]thieno[2,3-d]pyrimidin-4(3H)-one]
< 100 | C[C@H](c1cc(F)cc(Cl)c1)n1cnc2sc3c(c2c1=O)CCNC3 [Example 28, (R)-3-(1-(3-chloro-5-fluorophenyl)ethyl)-5,6,7,8-tetrahydropyrido[4′,3′:4,5]thieno[2,3-d]pyrimidin-4(3H)-one]
< 500 | C[C@@H](c1cc(Cl)ccc1F)n1cnc2sc3c(c2c1=O)CCNC3 [Example 29, (S)-3-(1-(5-Chloro-2-fluorophenyl)ethyl)-5,6,7,8-tetrahydropyrido[4′,3′:4,5]thieno[2,3-d]pyrimidin-4(3H)-one]
< 100 | C[C@H](c1cc(F)cc(C#N)c1)n1cnc2sc3c(c2c1=O)CCNC3 [Example 30, (R)-3-Fluoro-5-(1-(4-oxo-5,6,7,8-tetrahydropyrido[4′,3′:4,5]thieno[2,3-d]pyrimidin-3(4H)-yl)ethyl)benzonitrile]
